{"source": "paper PMC6325233", "about": "“A Novel Actin Binding Drug with In Vivo Efficacy” (Antimicrobial Agents and Chemotherapy, 2018)", "key": {"[1]": {"test_system": "Trichophyton mentagrophytes 10207", "test": "MIC susceptibility testing (itraconazole-resistant strain)", "format": "cell-based", "details": "CLSI M38-A2; 96 hours", "experimental": "(§1) Occidiofungin was purified from a liquid culture of Burkholderia contaminans MS14 as previously described ([21]). MIC susceptibility testing was performed according to the CLSI M27-A3 and M38-A2 standards for the susceptibility testing of yeasts and filamentous fungi, respectively. S. cerevisiae deletion mutants were obtained from the commercially available BY4741 deletion library (Thermo Scientific)."}, "Candida albicans 23512": {"test_system": "Candida albicans 23512", "test": "MIC susceptibility testing (fluconazole-resistant strain)", "format": "cell-based", "parameters": "key to MIC, 50% inhibition: -: indicates absence of isolates with 50% inhibition endpoint", "details": "CLSI M27-A3", "experimental": "as §1"}, "Candida glabrata 27243": {"test_system": "Candida glabrata 27243", "test": "MIC susceptibility testing (fluconazole-resistant strain)", "format": "cell-based", "parameters": "key to MIC, 50% inhibition: -: indicates absence of isolates with 50% inhibition endpoint", "details": "CLSI M27-A3", "experimental": "as §1"}, "[2]": {"test_system": "S. cerevisiae (diploid, BY4743) actin cables", "test": "Actin cable visualization, TRITC-labeled phalloidin", "format": "cell-based", "details": "for Cells without actin cables, Avg / Cells with actin cables, Avg: average of two replicates; for Cells without actin cables, Avg: untreated 25.87; for Cells with actin cables, Avg: untreated 74.13", "experimental": "S. pombe and S. cerevisiae cells (OD600 of 0.6 to 0.8) were incubated with 1× MIC of alkyne-OF at 30°C, with samples removed at 10, 30, and 60 min postincubation. The cells were washed in PBS and fixed with 3.7% formaldehyde. The cells were permeabilized by adding 0.5% Triton X-100. The cells were washed with PBS before the Click reaction with azide-derivatized Alexa Fluor 488 (Click-iT EdU imaging kit; Thermo Fisher Scientific). The cells were visualized with an Olympus FV1000 confocal microscope. A competition assay was carried out by pretreating cells with 1× MIC of the native occidiofungin followed by treatment with alkyne-OF. […] A 6.6 µM concentration of tetramethyl rhodamine isothiocyanate (TRITC)-tagged phalloidin was added to formaldehyde-fixed cells (permeabilized with 0.2% Triton X-100) for 30 min at room temperature. The cells were washed in PBS, added to a concanavalin A-treated glass slides, and overlaid with Vectashield plus DAPI. Images were viewed using a Nikon 50i fluorescence microscope with a 100× oil immersion objective and Texas Red and DAPI filter sets. Random images were captured using a Retiga EXi black and white charge-coupled-device (CCD) camera and Image Q software. All images were captured using the same exposure settings, with the image contrast altered postcapture using CorelDraw."}, "[3]": {"molecular_target": "T1, rabbit skeletal muscle F-actin (Oryctolagus cuniculus, UniProt P68135)", "T1 construct": "Purified rabbit skeletal muscle filamentous actin (catalog number AKF99); purchased Cytoskeleton, Inc. AKF99; host or cells: rabbit skeletal muscle (tissue-purified)", "test": "Cosedimentation assay", "format": "binding", "details": "F-actin 200 nM, Langmuir fit", "experimental": "(§2) Purified rabbit skeletal muscle filamentous actin (catalog number AKF99) and G-actin (catalog number AKL95) were purchased from Cytoskeleton, Inc. Actin was reconstituted in Milli-Q water to achieve a stock concentration of 0.4 mg/ml in a buffer that consisted of 5 mM Tris-HCl (pH 8.0), 0.2 mM CaCl2, 0.2 mM ATP, 2 mM MgCl2, and 5% (wt/vol) sucrose as directed by the supplier. This solution was stored at −80°C in 50-μl aliquots until use. Immediately before use, each aliquot was thawed by placing it in a 37°C water bath for 5 min and then at room temperature. For all studies, 24 μg of F- or G-actin was used with 8 μg alkyne-OF. F-actin filaments were reacted with native occidiofungin for 15 min at room temperature at molar ratios of 1:10 (24 μg actin to 8 μg native occidiofungin) and 1:5 (24 μg actin to 4 μg native occidiofungin). As per the manufacturer’s instructions, Acti-stain 670 phalloidin (Cytoskeleton, Inc.) was used as a control in an in vitro actin filament binding study. Actin filaments treated with DMSO (solvent blank negative control) were stained and observed for comparison. […]\nThe reaction buffer for F-actin (200 nM) and occidiofungin in the cosedimentation study consisted of 5 mM Tris-HCl (pH 8.0), 0.2 mM ATP, and 2 mM MgCl2. […] A TSQ Quantum access triple quadrupole mass spectrometer was used to quantify the amount of occidiofungin within each sample. […]"}, "[4]": {"molecular_target": "T1, rabbit skeletal muscle F-actin", "test": "Affinity pulldown with biotinylated alkyne-OF and streptavidin beads", "format": "binding", "details": "24 μg F-actin, 8 μg alkyne-OF, azide-biotin, streptavidin beads, silver stain", "experimental": "(§3) Purified rabbit skeletal muscle filamentous actin (catalog number AKF99) and G-actin (catalog number AKL95) were purchased from Cytoskeleton, Inc. Actin was reconstituted in Milli-Q water to achieve a stock concentration of 0.4 mg/ml in a buffer that consisted of 5 mM Tris-HCl (pH 8.0), 0.2 mM CaCl2, 0.2 mM ATP, 2 mM MgCl2, and 5% (wt/vol) sucrose as directed by the supplier. This solution was stored at −80°C in 50-μl aliquots until use. Immediately before use, each aliquot was thawed by placing it in a 37°C water bath for 5 min and then at room temperature. For all studies, 24 μg of F- or G-actin was used with 8 μg alkyne-OF. F-actin filaments were reacted with native occidiofungin for 15 min at room temperature at molar ratios of 1:10 (24 μg actin to 8 μg native occidiofungin) and 1:5 (24 μg actin to 4 μg native occidiofungin). As per the manufacturer’s instructions, Acti-stain 670 phalloidin (Cytoskeleton, Inc.) was used as a control in an in vitro actin filament binding study. Actin filaments treated with DMSO (solvent blank negative control) were stained and observed for comparison. The actin filaments were visualized on an Olympus FV1000 confocal microscope. Pulldown assays were performed using alkyne-OF with azide-biotin (Click-iT protein reaction buffer kit; Thermo Fisher Scientific), according to the manufacturer’s instructions. The proteins captured by biotinylated alkyne-OF on streptavidin beads were eluted by boiling in 50 µl of SDS sample loading buffer. The sample was electrophoresed through a 12% SDS gel, and protein bands were visualized by silver staining (Pierce Silver stain kit; Thermo Fisher Scientific) according to the manufacturer’s protocol. F- and G-actin treated with DMSO and native occidiofungin were used as the controls."}, "[5]": {"test_system": "rabbit skeletal muscle G-actin", "test": "Affinity pulldown with biotinylated alkyne-OF and streptavidin beads", "format": "binding", "details": "24 μg G-actin, 8 μg alkyne-OF, azide-biotin, streptavidin beads, silver stain", "experimental": "as §3"}, "[6]": {"test_system": "rabbit skeletal muscle filamentous actin", "test": "In vitro actin filament microscopy", "format": "biochemical", "details": "24 μg actin with 4 or 8 μg native occidiofungin (8 μg alkyne-OF), 15 min", "experimental": "as §2, with “comparison. The actin filaments were visualized on an Olympus FV1000 confocal microscope. Pulldown assays were performed using alkyne-OF with azide-biotin (Click-iT protein reaction buffer kit; Thermo Fisher Scientific), according to the manufacturer’s instructions.” for “comparison.”"}}, "note": "Entries after “also recorded” stand apart in the source; their conditions may differ. Like-named read-outs stand apart in the source and are kept apart here."}
{"substance": "occidiofungin", "values": [{"measurement": "MIC, 80% inhibition", "setting": "[1]", "result": 1, "unit": "µg/mL"}, {"measurement": "MIC, 100% inhibition", "setting": "[1]", "result": 2, "unit": "µg/mL"}, {"measurement": "MIC, 50% inhibition", "setting": "Candida albicans 23512; 24 hours", "result": "-"}, {"measurement": "MIC, 100% inhibition", "setting": "Candida albicans 23512; 24 hours", "result": 1, "unit": "µg/mL"}, {"measurement": "MIC, 50% inhibition", "setting": "Candida albicans 23512; 48 hours", "result": "-"}, {"measurement": "MIC, 100% inhibition", "setting": "Candida albicans 23512; 48 hours", "result": 2, "unit": "µg/mL"}, {"measurement": "MIC, 50% inhibition", "setting": "Candida glabrata 27243; 24 hours", "result": 2, "unit": "µg/mL"}, {"measurement": "MIC, 100% inhibition", "setting": "Candida glabrata 27243; 24 hours", "result": 4, "unit": "µg/mL"}, {"measurement": "MIC, 50% inhibition", "setting": "Candida glabrata 27243; 48 hours", "result": "-"}, {"measurement": "MIC, 100% inhibition", "setting": "Candida glabrata 27243; 48 hours", "result": 4, "unit": "µg/mL"}, {"measurement": "Cells with actin cables, %", "setting": "[2]", "result": 1.32, "unit": "%"}, {"measurement": "Cells without actin cables, Avg", "setting": "[2]; 0.5X MIC, 30 min, SD 1.45", "result": 97.66, "unit": "%"}, {"measurement": "Cells with actin cables, Avg", "setting": "[2]; 0.5X MIC, 30 min, SD 1.45", "result": 2.34, "unit": "%"}, {"measurement": "Cells without actin cables, %", "setting": "[2]; 0.5X MIC, 30 min, replicate 1", "result": 98.68, "unit": "%"}, {"measurement": "Cells with actin cables, %", "setting": "[2]; 0.5X MIC, 30 min, replicate 2", "result": 3.36, "unit": "%"}, {"measurement": "Cells without actin cables, %", "setting": "[2]; 0.5X MIC, 30 min, replicate 2", "result": 96.64, "unit": "%"}, {"measurement": "Cells without actin cables, Avg", "setting": "[2]; 0.5X MIC, 60 min, SD 0.25", "result": 99.82, "unit": "%"}, {"measurement": "Cells with actin cables, Avg", "setting": "[2]; 0.5X MIC, 60 min, SD 0.25", "result": 0.18, "unit": "%"}, {"measurement": "Cells with actin cables, %", "setting": "[2]; 0.5X MIC, 60 min, replicate 1", "result": 0, "unit": "%"}, {"measurement": "Cells without actin cables, %", "setting": "[2]; 0.5X MIC, 60 min, replicate 1", "result": 100, "unit": "%"}, {"measurement": "Cells with actin cables, %", "setting": "[2]; 0.5X MIC, 60 min, replicate 2", "result": 0.36, "unit": "%"}, {"measurement": "Cells without actin cables, %", "setting": "[2]; 0.5X MIC, 60 min, replicate 2", "result": 99.64, "unit": "%"}, {"measurement": "effect on actin organization", "setting": "[2]; 0.5× MIC, 30 min", "result": "an accumulation of actin patches and/or aggregates of F-actin were observed throughout the treated cells with a concomitant loss of actin cables; also recorded: a loss of actin cables and the accumulation of actin aggregates"}, {"measurement": "saturation of binding, stoichiometry ligand : actin monomer", "setting": "[3]", "result": 24}, {"measurement": "Kd", "setting": "[3]; occidiofungin 25 to 25,600 nM, pH 8.0, room temperature, 30 min, LC-MS quantification, read-out: estimated macroscopic dissociation constant (Kd)", "result": 1000, "unit": "nM"}, {"measurement": "copurification/binding with F-actin", "setting": "[4]", "result": "directly bind to F- or G-actin"}, {"measurement": "copurification/binding with F-actin", "setting": "[4]; listed as native OF", "result": "actin was not detected in the control lanes"}, {"measurement": "copurification/binding with G-actin", "setting": "[5]", "result": "directly bind to F- or G-actin"}, {"measurement": "copurification/binding with G-actin", "setting": "[5]; listed as native OF", "result": "actin was not detected in the control lanes"}, {"measurement": "effect on F-actin morphology", "setting": "[6]", "result": "the morphology of F-actin changed in the presence of occidiofungin in a dose-dependent manner"}, {"measurement": "effect on F-actin morphology", "setting": "[6]; listed as native occidiofungin", "result": "a high degree of aggregation of the filaments"}]}
